Source: ChEMBL document CHEMBL6134862, “Discovery of WEE1 Kinase Inhibitors with Potent Activity against Patient-Derived, Metastatic Colorectal Cancer Organoids” (J Med Chem, 2025)

Legend:
in vivo [1] = settings: Swiss outbred, mouse, iv, 3 mg/kg
in vivo [2] = settings: Swiss outbred, mouse, po, 10 mg/kg
physchem = settings: buffer, pH 7.4
in vivo [3] = settings: Swiss outbred, mouse, iv, 3 mg/kg; remark: listed apart in the source
[4] = mouse, in vivo, po, 10 mg/kg, 24 h
in vivo [5] = settings: Swiss outbred, mouse, iv, 3 mg/kg; remark: listed apart in the source

clearance at 24 h (in vivo [1]): 75 mL/min/kg | Cmax at 24 h (in vivo [2]): 26 nM | chromatographic logD (physchem): 3.4 | Vd at 24 h (in vivo [3]): 1.27 L/kg | AUC [4]: 0.067 µM·h | AUC(0-t) at 24 h (in vivo [5]): 0.21 µM·h
Compound: C=CCn1c(=O)c2cnc(Nc3ccc(N4CCN(C)CC4)cc3)nc2n1-c1cccc(C(C)(C)O)n1 [ADAVOSERTIB]
